Measurements as given in US5658500A, “Substituted naphthopyrans” (Transitions Optical, Inc., priority 1995, dated 1997).

Tests used:
[1] = lambda max of the activated (colored) form in the visible spectrum; assay type: physicochemical; design: unit not given here; conditions: wavelength of maximum absorption of the activated form, in a diethylene glycol bis(allyl carbonate) composition
Experimental: (§1) Testing was done with the photochromic naphthopyrans of the Examples incorporated or imbibed into test square polymerizates by one of two different methods. In Method I, the photochromic naphthopyrans of the Examples were incorporated into polymeric samples. The quantity of naphthopyran calculated to yield a 1.5 times 10^-3 molal solution was added to a flask containing 50 grams of a monomer blend of 4 parts ethoxylated bisphenol A dimethacrylate (BPA 2EO DMA), 1 part poly(ethyleneglycol) 600 dimethacrylate, and 0,033 weight percent 2,2'-azobis(2-methyl propionitrile) (AIBN). The naphthopyrans were dissolved into the monomer blend by stirring and gentle heating, if necessary. After a clear solution was obtained, it was poured into a flat sheet mold having the interior dimensions of 2.2 mm×6 inches (15.24 cm)×6 inches (15.24 cm). The mold was sealed and placed in a horizontal air flow, programmable oven set to increase the temperature from 40° C. to 95° C. over a 5 hour interval, hold the temperature at 95° C. for 3 hours and then lower it to 60° C. for at least 2 hours before the end of the curing cycle. After the molds were opened, the polymer sheets were cut using a diamond blade saw into 2 inch (5.1 centimeters) test squares.
(§2) In Method II, the photochromic naphthopyran was imbibed into test square polymerizates prepared from a diethylene glycol bis(allyl carbonate) composition. The test squares measured 1/8 inch (0.3 centimeters)×2 inches (5.1 centimeters)×2 inches (5.1 centimeters). In the imbibition process, the photochromic naphthopyran was dissolved to form a 10 weight percent solution in a 1:9 mixture of ethyl cellulose:toluene. The solution was then spin coated onto the test squares and allowed to dry. Samples were then heated in a hot-air oven at 135°-155°C. for a period of time sufficient to thermally transfer the photochromic into the test squares. […] After cooling, the ethyl cellulose/toluene resin film was removed from the test squares by washing with acetone.
(§3) The ΔOD/Min, which represents the sensitivity of the photochromic compound's response to UV light, was measured over the first five (5) seconds of UV exposure, then expressed on a per minute basis. The saturation optical density (OD) was taken under identical conditions as the ΔOD/Min, except UV exposure was continued for 20 minutes for the examples in Table 1. The lambda max reported in Table 1 is the wavelength in the visible spectrum at which the maximum absorption of the activated (colored) form of the photochromic compound in a diethylene glycol bis(allyl carbonate) composition occurs. The Bleach Rate (T 1/2) is the time interval in seconds for the absorbance of the activated form of the naphthopyran in the test squares to reach one half the highest absorbance at room temperature (75° F., 23.9° C.) after removal of the source of activating light.

[2] = photochromic response of test squares on an optical bench (sensitivity, saturation optical density, bleach rate); assay type: physicochemical; conditions: for ΔOD @ SATURATION: UV exposure 20 minutes; for ΔOD @ SATURATION / ΔOD/MIN SENSITIVITY: 75° F. (23.9° C.); for ΔOD/MIN SENSITIVITY: first five seconds of UV exposure, expressed per minute; for Bleach Rate (T1/2): room temperature (75° F., 23.9° C.) after removal of activating light
Experimental: as §1
as §2, with “dry.” for “dry. Samples were then heated in a hot-air oven at 135°-155°C. for a period of time sufficient to thermally transfer the photochromic into the test squares.”
The photochromic test squares were tested for photochromic response rates on an optical bench. […] The bench was fitted with a 150 watt Xenon arc lamp, a remote controlled shutter, a copper sulfate bath acting as a heat sink for the arc lamp, a Schott WG-320 nm cut-off filter which removes short wavelength radiation; neutral density filter(s) and a sample holder in which the square to be tested was inserted. A collimated beam of light from a tungsten lamp was passed through the square at a small angle normal to the square. After passing through the square, the light from the tungsten lamp was directed through a photopic filter attached to a detector. The photopic filter passes wavelengths such that the detector mimics the response of the human eye. The output signals from the detector(s) were processed by a radiometer.
Change in optical density (ΔOD) was determined by inserting a test square in the bleached state into the sample holder, adjusting the transmittance scale to 100%, opening the shutter from the Xenon lamp to provide ultraviolet radiation to change the test square from the bleached state to an activated (i.e., darkened) state, measuring the transmittance in the activated state, and calculating the change in optical density according to the formula ΔOD=log(100/%Ta) where %Ta is the percent transmittance in the activated state and the logarithm is to the base 10.
as §3, with “occurs.” for “occurs. The Bleach Rate (T 1/2) is the time interval in seconds for the absorbance of the activated form of the naphthopyran in the test squares to reach one half the highest absorbance at room temperature (75° F., 23.9° C.) after removal of the source of activating light.”

[3] = Method II (imbibed) test square

| SMILES | LAMBDA MAX (VISIBLE) [1] | ΔOD @ SATURATION ([2]; Method I test square) | ΔOD/MIN SENSITIVITY ([2]; Method I test square) | Bleach Rate (T1/2) ([2]; Method I test square) | ΔOD @ SATURATION [2, 3] | ΔOD/MIN SENSITIVITY [2, 3] | Bleach Rate (T1/2) [2, 3] |
| --- | --- | --- | --- | --- | --- | --- | --- |
| COC(=O)c1c2c(c3ccccc3c1O)OC(c1ccccc1)(c1ccc(N3CCOCC3)cc1)C=C2 (centres unmarked) [Example 1, 2-(4-morpholinophenyl)-2-phenyl-5-methoxycarbonyl-6-hydroxy-2H-naphtho[1,2-b]pyran] | 511 | 1.36 | 0.64 ΔOD/MIN | 3.22 min | – | – | – |
| COC(=O)c1c2c(c3ccccc3c1OC)OC(c1ccccc1)(c1ccc(N3CCOCC3)cc1)C=C2 (centres unmarked) [Example 2, 2-(4-morpholinophenyl)-2-phenyl-5-methoxycarbonyl-6-methoxy-2H-naphtho[1,2-b]pyran] | 541 | 0.95 | 0.29 ΔOD/MIN | 4.87 min | – | – | – |
| COC(=O)c1c2c(c3ccccc3c1OC(C)=O)OC(c1ccccc1)(c1ccc(N3CCOCC3)cc1)C=C2 (centres unmarked) [Example 3, 2-(4-morpholinophenyl)-2-phenyl-5-methoxycarbonyl-6-acetoxy-2H-naphtho[1,2-b]pyran] | 545 | 0.31 | 0.24 ΔOD/MIN | 1.47 min | – | – | – |
| CCn1c2ccccc2c2ccc(C3(c4ccccc4)C=Cc4c(C(=O)OC)c(OC(C)=O)c5ccccc5c4O3)cc21 (centres unmarked) [Example 4, 2-(9-ethylcarbazol-2-yl)-2-phenyl-5-methoxycarbonyl-6-acetoxy-2H-naphtho[1,2-b]pyran] | 528 | – | – | – | 0.46 | 0.67 ΔOD/MIN | 4.5 min |
| COC(=O)c1c2c(c3ccccc3c1OC(C)=O)OC(c1ccccc1)(c1ccc3c4ccccc4n(-c4ccccc4)c3c1)C=C2 (centres unmarked) [Example 5, 2-(9-phenylcarbazol-2-yl)-2-phenyl-5-methoxycarbonyl-6-acetoxy-2H-naphtho[1,2-b]pyran] | 520 | 0.88 | 0.31 ΔOD/MIN | 1.17 min | – | – | – |
| COC(=O)c1c2c(c3ccccc3c1OC(C)=O)OC(c1ccccc1)(c1ccc(N(C)C)cc1)C=C2 (centres unmarked) [Example 6, 2-(4-dimethylaminophenyl)-2-phenyl-5-methoxycarbonyl-6-acetoxy-2H-naphtho[1,2-b]pyran] | 591 | 0.30 | 0.27 ΔOD/MIN | 1.17 min | – | – | – |
| COC(=O)c1c2c(c3ccccc3c1C)OC(c1ccccc1)(c1ccc(N(C)C)cc1)C=C2 (centres unmarked) [Example 7, 2-(4-dimethylaminophenyl)-2-phenyl-5-methoxycarbonyl-6-methyl-2H-naphtho[1,2-b]pyran] | 584 | 0.51 | 0.20 ΔOD/MIN | 3.33 min | – | – | – |
| COC(=O)c1c2c(c3ccccc3c1OC(C)=O)OC(c1ccc(N(C)C)cc1)(c1ccc(N(C)C)cc1)C=C2 [Example 8, 2,2-bis (4-dimethylaminophenyl)-5-methoxycarbonyl-6-acetoxy-2H-naphtho[1,2-b]pyran] | 618 | 0.07 | 0.16 ΔOD/MIN | 0.317 min | – | – | – |
